How the values were obtained:
Type in all cases: cell-based, human
[1] = tested on: heparin sulfate expression in ES2 cells; assay: Microarray gene expression, Table 10; details: for HSPG2 heparan sulfate proteoglycan 2 (perlecan), gene expression ratio to no drug control (D): probe 201655_s_at; for HS2ST1 heparan sulfate 2-O-sulfotransferase 1, gene expression ratio to no drug control (D): probe 203284_s_at; for HPSE Heparanase, gene expression ratio to no drug control (D): probe 219403_s_at
Method: (§1) Y/D is the ratio (in folds) of gene expression in cells treated with compound Y as compared with those of the no drug control (D),
(§2) YM/D is the ratio of gene expression in cells treated with compound YM (ACH-Y, Y without sugar moiety) compared with those of the no drug control (D)
(§3) Cell culture and drug-treatment.: ES2 cells were seeded in a T-25 flask with 4.5 million cells per flask for 24 hours. Cell culture was replaced with fresh medium with xanifolia-Y (Y) or DMSO no drug control (D) for 24 hours. Cells were then harvested for RNA isolation. Three experiments were done.
(§4) RNA extraction, labeling, hybridization, and data analysis. RNA was extracted from tumor cells using the Qiagen RNeasy Kit. RNA quality and quantity was checked by the Agilent BioAnalyzer and the NanoDrop® ND-1000 spectrophotometer respectively before further manipulation. The first and second cDNA strands were synthesized from 20 ng of total RNA using the Affymetrix T7 oligo(dT) primer protocol and kit for the two-cycle amplification. To produce amplified biotin-labeled-cRNA, the cDNA was […] by in vitro transcription using the MegaScript kit from Ambion. 15.0 μg of the labeled cRNA was fragmented and re-checked for concentration using the NanoDrop® ND-1000 spectrophotometer. A hybridization cocktail containing Affymetrix spike-in controls and fragmented labeled cRNA was loaded onto the Human U133 Plus 2.0 GeneChip® oligonucleotide array. The Affymetrix array (Affymetrix, Inc. Santa Clara, Calif.) is comprised of over 1,300,000 unique oligonucleotide features that represent greater than 38,500 well-substantiated human genes. The array was hybridized for 16 hours at 45° C. with rotation at 60 rpm then washed and stained with a strepavidin, R-phycoerythrin conjugate stain on the Affymetrix Fluidicis Station 450. Signal amplification was done using biotinylated antistreptavidin. The arrays were scanned using the GeneChip® 3000 confocal laser scanner with autoloader. The images were analyzed and quality control metrics recorded using Affymetrix GCOS software version 1.4. Lastly, the expression value for each gene was calculated using dChip PM-only model based or Plier algorithm.
(§5) Pairwise comparisons were made as follows: Treated vs. Control (Y vs. D), Modified Drug vs Control (YM/ACY-H vs. D) and Treated vs. Modified Drug (Y vs. YM/ACH-Y) Cel files analyzed using the Bioconductor package of R Statistical programming. Limma analysis generated a reasonable number of changing genes between the samples.
(§6) The raw data in the .CEL files were normalized by the GCRMA method (robust multi-array analysis). It is implemented in Bioconductor (http://www.bioconductor.org/). The raw signal intensity data were normalized, background corrected and summarized based on certain statistical models, and an expression value, in log 2-scale, is obtained per chip per probe set. Then the null hypothesis was tested that there's no significant changes in gene expression between the treatment pairs. This was done by LIMMA and is also implemented in Bioconductor. It uses empirical Bayes method to estimate the variance in gene expression. One comparison was made, namely, High Grade vs. Low Grade. The raw p-values were adjusted by the Benjamnin-Hochberg method for false discovery rate (FDR) control. All data sets contained a significant number of genes with a p-value less than 0.05, which is that the probability that a gene is NOT differential expressed (false positive) is 1:20.

[2] = tested on: insulin-like growth factor binding protein expression in ES2 cells; assay: Microarray gene expression, Table 16; details: for IGFBP7 insulin-like growth factor binding protein 7, gene expression ratio to no drug control (D): probe 201163_s_at; for IGFBP4 insulin-like growth factor binding protein 4, gene expression ratio to no drug control (D): probe 201508_at; for IGFBP6 insulin-like growth factor binding protein 6, gene expression ratio to no drug control (D): probe 203851_at; for IGFBP1 insulin-like growth factor binding protein 1, gene expression ratio to no drug control (D): probe 205302_at
Method: as §1, §2, §3, §4, §5, §6

[3] = tested on: Glypican expression in ES2 cells; assay: Microarray gene expression, Table 13
Method: as §1, §2, §3, §4, §5
The raw data in the .CEL files were normalized by the GCRMA method (robust multi-array analysis). It is implemented in Bioconductor (http://www.bioconductor.org/). […]

Compound | HSPG2 heparan sulfate proteoglycan 2 (perlecan), gene expression ratio to no drug control (D) [1] [folds] | HS2ST1 heparan sulfate 2-O-sulfotransferase 1, gene expression ratio to no drug control (D) [1] [folds] | HPSE Heparanase, gene expression ratio to no drug control (D) [1] [folds] | IGFBP7 insulin-like growth factor binding protein 7, gene expression ratio to no drug control (D) [2] [folds] | IGFBP4 insulin-like growth factor binding protein 4, gene expression ratio to no drug control (D) [2] [folds] | IGFBP6 insulin-like growth factor binding protein 6, gene expression ratio to no drug control (D) [2] [folds] | IGFBP1 insulin-like growth factor binding protein 1, gene expression ratio to no drug control (D) [2] [folds] | IGFBP3 insulin-like growth factor binding protein 3, gene expression ratio to no drug control (D) ([2]; probe 210095_s_at) [folds] | IGFBP3 insulin-like growth factor binding protein 3, gene expression ratio to no drug control (D) ([2]; probe 212143_s_at) [folds] | GPC6 Glypican 6, gene expression ratio to no drug control (D) ([3]; probe 227059_at) [folds] | GPC6 Glypican 6, gene expression ratio to no drug control (D) ([3]; probe 243865_x_at) [folds]
C/C=C(/C)C(=O)O[C@H]1[C@H](OC(=O)/C(C)=C\C)[C@@]2(CO)C(CC1(C)C)C1=CCC3[C@@]4(C)CC[C@H](O[C@@H]5OC(C(=O)O)[C@@H](O)C(O[C@@H]6O[C@@H](CO)C(O)C6O)C5O[C@@H]5OC(CO)[C@H](O)C(O)C5O)C(C)(C)C4CC[C@@]3(C)[C@]1(C)[C@@H](O)[C@H]2O (stereo partly drawn) [Xanifolia-Y, 3-O-[β-D-galactopyranosyl (1→2)]-α-L-arabinofuranosy (1→3)-β-D-glucuronopyranosyl-21,22-O-diangeloyl-3β, 15α, 16α, 21β, 22α, 28-hexahydroxyolean-12-ene] | −2.4 | −1.3 | −1.4 | −1.4 | −1.7 | −1.3 | −1.7 | −4.0 | −3.7 | −2.2 | −2.7
C/C=C(/C)C(=O)O[C@H]1[C@H](OC(=O)/C(C)=C\C)[C@@]2(CO)C(CC1(C)C)C1=CCC3[C@@]4(C)CC[C@H](O)C(C)(C)C4CC[C@@]3(C)[C@]1(C)[C@@H](O)[C@H]2O (stereo partly shown) [ACH-Y] | −1.3 | −1.7 | −1.3 | −2.7 | −2.4 | −1.8 | −1.8 | −3.5 | −5.3 | −1.8 | −2.0

From patent US10213451B2, “Methods and compounds for modulating the secretion or expression of adhesion proteins or angiopoietins of cells” (PACIFIC ARROW LIMITED, priority 2004, dated 2019)
